Among the test systems are A549 NSCLC; HCT-15 colon; IGROV1 ovarian; LOX IMVI melanoma; MDA-MB-231 breast; OVCAR-4 ovarian; SN12C renal; SNB-19 CNS; UACC-257 melanoma; UO-31 renal.
Holding throughout (assay): DTP human tumour cell line panel, 48 h

Several values for one entry are separate records, joined by “and”; a condition that tells them apart may be missing. Equal values may be shown once.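 In this assay, cells in 96-well plates receive the compound at five concentrations for 48 hours. Endpoints are linearly interpolated between the surrounding concentrations. At the GI50, growth is halved. TGI marks complete inhibition of growth.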

On to `COc1cc(-c2cc(O)c(-c3ccc4ccccc4n3)c(=O)[nH]2)cc(OC)c1OC`, for which the TGI with A549 NSCLC was greater than 95 µM; in the assay on HCT-15 colon, greater than 100 µM; with IGROV1 ovarian, greater than 78.8 µM; in the assay on LOX IMVI melanoma, greater than 53.8 µM; in the assay on MDA-MB-231 breast, greater than 70.2 µM; in the assay with OVCAR-4 ovarian it was greater than 53.6 µM. For the same molecule, the TGI with SN12C renal, in the assay on SNB-19 CNS, with UACC-257 melanoma and with UO-31 renal was greater than 100 µM throughout.
On to `[N-]=[N+]=NCCCCCC(=O)OC(C(=O)c1ccccc1)c1cccc(OCC(=O)NCCOCCOCCNC(=O)CCCC[C@@H]2SC[C@@H]3NC(=O)N[C@@H]32)c1` (stereo partly specified), for which the GI50 is greater than 100 µM with A549 NSCLC; greater than 100 µM in the assay on HCT-15 colon; greater than 100 µM in the assay with IGROV1 ovarian; 18.5 µM in the assay with LOX IMVI melanoma; 44 µM in the assay with MDA-MB-231 breast; greater than 100 µM with OVCAR-4 ovarian. In addition, the GI50 with SN12C renal, in the assay with SNB-19 CNS, with UACC-257 melanoma and in the assay with UO-31 renal was greater than 100 µM each time. For the same molecule, the TGI was greater than 100 µM in the assay on A549 NSCLC; greater than 100 µM with HCT-15 colon; greater than 100 µM in the assay on IGROV1 ovarian; 44.5 µM in the assay on LOX IMVI melanoma; greater than 100 µM in the assay with MDA-MB-231 breast; greater than 100 µM with OVCAR-4 ovarian. Moreover, the TGI in the assay on SN12C renal, with SNB-19 CNS, in the assay on UACC-257 melanoma and in the assay with UO-31 renal was greater than 100 µM each time.
Regarding `Cc1cc(N2CCOCC2)nc(N[C@@H]2CCC[C@H](Nc3ccnc4cc(Cl)ccc34)C2)n1`, the GI50 is 3.31 µM in the assay with A549 NSCLC; 1.4 µM in the assay with HCT-15 colon; 2.23 µM in the assay with IGROV1 ovarian; 1.71 µM in the assay on LOX IMVI melanoma; 1.7 µM in the assay with MDA-MB-231 breast; 2.8 µM in the assay with OVCAR-4 ovarian. Further, the GI50 with SN12C renal was 2.48 µM; in the assay with SNB-19 CNS it was 3.35 µM; in the assay with UACC-257 melanoma, 2.14 µM; in the assay on UO-31 renal, 1.29 µM. The TGI is 8.56 µM in the assay on A549 NSCLC; 3.54 µM in the assay on HCT-15 colon; 6.6 µM in the assay with IGROV1 ovarian; 3.3 µM in the assay on LOX IMVI melanoma; 3.58 µM in the assay with MDA-MB-231 breast; 10.8 µM in the assay on OVCAR-4 ovarian. In addition, the TGI is 8.68 µM with SN12C renal, 12.2 µM in the assay on SNB-19 CNS, 3.89 µM with UACC-257 melanoma and 2.63 µM in the assay on UO-31 renal.
As to `O=C(NCCCO)c1cc(Cl)ccc1O`, the GI50 in the assay on A549 NSCLC was 3.24 µM; in the assay on HCT-15 colon it was 7.02 µM; in the assay on IGROV1 ovarian it was 3.94 µM; in the assay with LOX IMVI melanoma it was 2.5 µM; in the assay with MDA-MB-231 breast, 3.64 µM; with OVCAR-4 ovarian, 2.54 µM. In addition, the GI50 in the assay on SN12C renal was 1.89 µM; in the assay with SNB-19 CNS it was 2.26 µM; in the assay on UACC-257 melanoma, 2.23 µM; in the assay on UO-31 renal, 2.98 µM. Besides, the TGI was found to be 14 µM with A549 NSCLC; 21.6 µM in the assay on HCT-15 colon; 17 µM in the assay with IGROV1 ovarian; 11.5 µM in the assay on LOX IMVI melanoma; 12.8 µM with MDA-MB-231 breast; 12.4 µM in the assay on OVCAR-4 ovarian. Also, the TGI with SN12C renal was 11.7 µM; in the assay on SNB-19 CNS, 17.6 µM; in the assay on UACC-257 melanoma, 7.54 µM; in the assay with UO-31 renal, 11.3 µM.
`O=C(c1ccccc1)C1OC1c1ccc([N+](=O)[O-])cc1` (stereo unspecified): the GI50 was 24.9 µM with A549 NSCLC; 4.28 µM in the assay on HCT-15 colon; 3.01 µM with IGROV1 ovarian; 1.81 µM in the assay on LOX IMVI melanoma; 11 µM in the assay on MDA-MB-231 breast; 4.57 µM with OVCAR-4 ovarian. In addition, the GI50 is 10.1 µM with SN12C renal, 26.2 µM in the assay on SNB-19 CNS, 16.7 µM in the assay on UACC-257 melanoma and 5.94 µM in the assay on UO-31 renal. Besides, the TGI in the assay with A549 NSCLC is greater than 100 µM; in the assay on HCT-15 colon it was greater than 100 µM; in the assay on IGROV1 ovarian, 11.6 µM; in the assay with LOX IMVI melanoma, 10.8 µM; in the assay on MDA-MB-231 breast it was 33.1 µM; in the assay on OVCAR-4 ovarian it was greater than 100 µM. The TGI was greater than 100 µM with SN12C renal, greater than 100 µM in the assay on SNB-19 CNS, greater than 100 µM in the assay on UACC-257 melanoma and 93.2 µM in the assay on UO-31 renal.
On to `CCC(=C/[C@H](C)C/C=C/C(C)=C/[C@@H](C)C(=O)[C@@H](C)[C@H](O)[C@@H](C)CC)/C=C/[C@@H]1OC(=O)C=C[C@H]1C`, for which the GI50 in the assay on A549 NSCLC, in the assay on HCT-15 colon, in the assay with IGROV1 ovarian, in the assay on LOX IMVI melanoma, in the assay with MDA-MB-231 breast and in the assay on OVCAR-4 ovarian was less than 0.01 µM in each case. The GI50 with SN12C renal, in the assay on SNB-19 CNS, in the assay with UACC-257 melanoma and in the assay with UO-31 renal was less than 0.01 µM throughout. Further, the TGI was 1.86 µM with A549 NSCLC; 0.396 µM in the assay with HCT-15 colon; less than 0.01 µM with LOX IMVI melanoma; 1.77 µM in the assay with MDA-MB-231 breast; 1.5 µM in the assay on OVCAR-4 ovarian; 1.41 µM in the assay on SN12C renal.
Turning to `C/C1=C/C(=O)O[C@@H]2C[C@@H](CC[C@H](C)/C=C\C=C\CC1)O[C@@](O)([C@@H]1CSC(=O)N1)C2`, the TGI is greater than 10 µM in the assay with A549 NSCLC; greater than 10 µM in the assay on HCT-15 colon; 0.547 µM in the assay on IGROV1 ovarian; greater than 3.88 µM in the assay with LOX IMVI melanoma; greater than 2.65 µM in the assay with MDA-MB-231 breast; greater than 10 µM in the assay with OVCAR-4 ovarian. In addition, the TGI in the assay on SN12C renal was greater than 10 µM; with SNB-19 CNS it was greater than 7.89 µM; in the assay on UACC-257 melanoma it was greater than 10 µM; in the assay with UO-31 renal it was 1.25 µM.
Turning to `Nc1nnnn1CCO`, the TGI in the assay on A549 NSCLC, in the assay on HCT-15 colon, in the assay on IGROV1 ovarian, in the assay on LOX IMVI melanoma, in the assay on MDA-MB-231 breast and with OVCAR-4 ovarian was greater than 100 µM each time. The TGI with SN12C renal, with SNB-19 CNS, in the assay on UACC-257 melanoma and in the assay with UO-31 renal was greater than 100 µM in each case.
Consider `O=C(O)C1(C(=O)O)CCC1.[NH2-].[NH2-].[Pt+2]`, for which the GI50 is 107 µM and 185 µM in the assay on A549 NSCLC; greater than 250 µM in the assay with HCT-15 colon; 47.2 µM and 91.8 µM in the assay on IGROV1 ovarian; 70.2 µM and 70.7 µM in the assay on LOX IMVI melanoma; 247 µM and > 250 µM in the assay with MDA-MB-231 breast; 84 µM and 120 µM in the assay with OVCAR-4 ovarian. The GI50 in the assay on SN12C renal was 154 µM and > 177 µM; in the assay with SNB-19 CNS, 148 µM and 103 µM; with UACC-257 melanoma, 129 µM and > 229 µM; in the assay with UO-31 renal, 167 µM and 84.1 µM. Also, the total growth inhibition concentration (TGI) with A549 NSCLC is 226 µM and > 250 µM; with HCT-15 colon, greater than 250 µM; with IGROV1 ovarian it was 130 µM and 194 µM; with LOX IMVI melanoma, 211 µM and 175 µM; with MDA-MB-231 breast, greater than 250 µM; in the assay on OVCAR-4 ovarian, 221 µM and > 250 µM. For the same molecule, the TGI in the assay on SN12C renal was 237 µM and > 250 µM; with SNB-19 CNS, 224 µM and > 250 µM; in the assay with UACC-257 melanoma, 250 µM and > 250 µM; in the assay with UO-31 renal, greater than 242 µM.
